Assay results taken from publication PMC3229538, “Inhibition of G Protein-Activated Inwardly Rectifying K^+ Channels by Different Classes of Antidepressants” (PLoS ONE, 2011).
Counter-ions that a name gives are not always drawn. Like-named read-outs stand apart in the source and are kept apart here. One block for each compound: values may come before it.

What was measured:
[1] = tested on: intrinsic oocyte channels; test: Current responses in uninjected Xenopus oocytes; format: cell-based, Xenopus laevis
Description: Louis, MO, USA). […] Microelectrodes were filled with 3 M KCl. […] For the analysis of concentration-response relationships, the data were fitted to a standard logistic equation [51] using KaleidaGraph (Synergy Software, Reading, PA, USA). […] The data are expressed as mean ± SEM, and n is the number of oocytes tested. The statistical analysis of differences between groups was performed using paired t-test, one-way analysis of variance (ANOVA), or two-way ANOVA followed by the Tukey-Kramer post hoc test. Values of P<0.05 were considered statistically significant.

[2] = pKa of secondary amine group and protonation; format: physicochemical; details: pH 7.4
Kir2.1 channels = tested on: T1, Kir2.1 channels; test: Effect on Kir2.1 currents, Xenopus oocyte expression assay; format: cell-based, mouse; details: 300 µM, hK solution
T1 construct: expressed in transfected cells; host or cells: Xenopus laevis oocytes injected with in vitro transcribed mRNA
Description: Microelectrodes were filled with 3 M KCl. […]. The data are expressed as mean ± SEM, and n is the number of oocytes tested. The statistical analysis of differences between groups was performed using paired t-test, one-way analysis of variance (ANOVA), or two-way ANOVA followed by the Tukey-Kramer post hoc test. Values of P<0.05 were considered statistically significant.

[3] = ref Data Sheets of Pfizer and Eli Lilly and Company; cited from earlier work
[4] = biological target: GIRK1/2 channels activated by ethanol (Mus musculus, UniProt P48542+P63250); details: 100 mM
From the text: These plasmids were linearized by digestion with the appropriate enzymes as described previously [45], [46]. The specific mRNAs were synthesized in vitro using the mMESSAGE mMACHINE™ In Vitro Transcription Kit (Ambion, Austin, TX, USA).

[5] = cited from earlier work
[6] = cited from earlier work; remark: listed apart in the source
GIRK1/2 channels = biological target: T2, GIRK1/2 channels (Mus musculus, UniProt P48542+P63250); test: Inhibition of basal GIRK currents, Xenopus oocyte expression assay, two-electrode voltage clamp; format: cell-based; details: for inhibition at 100 µM: read-out: % inhibition of basal GIRK currents
T2 construct: expressed in transfected cells; host or cells: Xenopus laevis oocytes injected with in vitro transcribed mRNA
T2 sequence (P63250 1-501): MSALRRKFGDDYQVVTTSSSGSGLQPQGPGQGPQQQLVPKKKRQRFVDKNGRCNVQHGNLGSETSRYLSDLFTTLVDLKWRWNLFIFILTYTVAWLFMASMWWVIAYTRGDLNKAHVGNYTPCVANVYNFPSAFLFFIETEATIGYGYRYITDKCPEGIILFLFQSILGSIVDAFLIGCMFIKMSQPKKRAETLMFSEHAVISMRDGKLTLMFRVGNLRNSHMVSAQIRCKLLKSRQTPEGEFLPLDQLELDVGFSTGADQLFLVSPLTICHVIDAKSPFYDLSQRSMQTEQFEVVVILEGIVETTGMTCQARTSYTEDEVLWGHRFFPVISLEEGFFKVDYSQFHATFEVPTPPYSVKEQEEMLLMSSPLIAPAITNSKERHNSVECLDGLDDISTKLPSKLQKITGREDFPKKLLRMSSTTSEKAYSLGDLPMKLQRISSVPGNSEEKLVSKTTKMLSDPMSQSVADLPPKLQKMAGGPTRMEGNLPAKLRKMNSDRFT
T2 sequence (P48542 1-425): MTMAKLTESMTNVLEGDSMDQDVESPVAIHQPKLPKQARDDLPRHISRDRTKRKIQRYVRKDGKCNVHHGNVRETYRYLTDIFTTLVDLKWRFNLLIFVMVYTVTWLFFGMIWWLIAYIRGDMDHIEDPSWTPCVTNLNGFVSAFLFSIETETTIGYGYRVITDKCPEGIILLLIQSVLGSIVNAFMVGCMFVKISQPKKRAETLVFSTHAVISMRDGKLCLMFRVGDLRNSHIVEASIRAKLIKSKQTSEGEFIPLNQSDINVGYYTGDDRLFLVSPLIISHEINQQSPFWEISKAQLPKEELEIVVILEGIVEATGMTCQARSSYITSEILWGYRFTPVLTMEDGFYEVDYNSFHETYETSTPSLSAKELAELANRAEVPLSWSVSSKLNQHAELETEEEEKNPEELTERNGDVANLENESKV
Description: (§1) Microelectrodes were filled with 3 M KCl. […] The data are expressed as mean ± SEM, and n is the number of oocytes tested. The statistical analysis of differences between groups was performed using paired t-test, one-way analysis of variance (ANOVA), or two-way ANOVA followed by the Tukey-Kramer post hoc test. Values of P<0.05 were considered statistically significant.

GIRK1/4 channels = biological target: T3, GIRK1/4 channels (Mus musculus, UniProt P48545+P63250); test: as above; format: cell-based; details: for inhibition at 100 µM: read-out: % inhibition of basal GIRK currents
T3 construct: expressed in transfected cells; host or cells: Xenopus laevis oocytes injected with in vitro transcribed mRNA
T3 sequence (P63250 1-501): T2 sequence (P63250 1-501)
T3 sequence (P48545 1-419): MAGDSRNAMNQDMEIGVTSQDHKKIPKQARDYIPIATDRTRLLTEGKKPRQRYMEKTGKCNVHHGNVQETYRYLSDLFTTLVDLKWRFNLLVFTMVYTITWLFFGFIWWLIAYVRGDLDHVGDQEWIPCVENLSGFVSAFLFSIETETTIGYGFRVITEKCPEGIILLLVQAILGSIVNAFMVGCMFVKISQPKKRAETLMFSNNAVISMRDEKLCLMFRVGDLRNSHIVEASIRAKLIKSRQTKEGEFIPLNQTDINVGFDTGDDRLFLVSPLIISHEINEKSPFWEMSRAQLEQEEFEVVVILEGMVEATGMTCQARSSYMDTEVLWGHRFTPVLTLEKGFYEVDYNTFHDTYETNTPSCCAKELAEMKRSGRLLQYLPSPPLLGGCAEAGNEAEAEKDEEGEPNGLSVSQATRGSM
Description: as §1

GIRK channels = details: cited from earlier work
[7] = biological target: T4, GIRK1/2 channels activated by GTPγS (Mus musculus, UniProt P48542+P63250); test: Inhibition of total GIRK currents (GTPγS-induced and basal) in GTPγS-injected oocytes; format: cell-based; details: injection of 13.8 nl of 100 mM into oocyte
T4 construct: expressed in transfected cells; host or cells: Xenopus laevis oocytes injected with in vitro transcribed mRNA
T4 sequence (P63250 1-501): T2 sequence (P63250 1-501)
T4 sequence (P48542 1-425): T2 sequence (P48542 1-425)
From the text: Microelectrodes were filled with 3 M KCl. […] GIRK channels are activated by various Gi/o-protein-coupled receptors through the direct action of G-protein βγ subunits released from the heterotrimeric G-protein complex, [33].

[8] = 100 µM, K4 solution 4 mM K+, −10 mV
[9] = basal GIRK currents, −70 mV, hK solution 96 mM K+
[10] = concentration reducing basal GIRK currents by 25%
[11] = concentration reducing basal GIRK currents by 50%
[12] = read-out: % max (percentage inhibition of basal GIRK currents at the highest concentration tested)

SMILES: CCO [ethanol, Ethanol]
- induced GIRK currents [4]: 344.2±40.3 nA

SMILES: [Ba+2] [Ba^2+]
- current response ([1]; 3 mM, K4 solution 4 mM K+, −10 mV): 7.6±1.3 nA
- current response in GTPγS-injected uninjected oocytes ([1]; 3 mM, after GTPγS injection): 3.9±2.1 nA
- current response ([1]; 3 mM, hK solution, −70 mV): 3.1±1.7 nA

SMILES: COc1ccc(C(CN(C)C)C2(O)CCCCC2)cc1 (stereo not drawn) [venlafaxine, Venlafaxine hydrochloride]
- concentrations in cases of overdose [5]: ≤ 302.8 µM
- brain levels compared with blood levels [6]: 4.9 fold
- inhibition at 100 µM (GIRK1/2 channels): 19.4 ± 4.6%
- inhibition at 100 µM (GIRK1/4 channels): 22.8 ± 3.2%

SMILES: CCN(CC)C(=O)C1(c2ccccc2)CC1CN (stereo not drawn) [milnacipran]
- effects on GIRK channels (GIRK channels): little effects

SMILES: CNCC[C@H](Oc1cccc2ccccc12)c1cccs1 [duloxetine, duloxetine hydrochloride]
- current response [1, 8]: 0±0 nA
- protonated form [2]: ~98.9%
- pKa of secondary amine group [3]: 9.34
- concentrations in cases of overdose [5]: ≤ 8.4 µM
- brain levels compared with blood levels [6]: 15 fold
- effect on outward GIRK currents (GIRK1/2 channels; 30 µM, K4 solution 4 mM K+, holding potential −10 mV): reversibly reduced
- voltage dependence of GIRK current inhibition at the end of the voltage pulses (GIRK1/2 channels; 30 µM, −120 to −40 mV): voltage-dependent
- n H (Hill coefficient) (GIRK1/2 channels; basal GIRK currents): 0.94±0.06
- EC50 (GIRK1/2 channels; [9]): 14.9 ± 0.4 µM
- IC25 (GIRK1/2 channels; [10]): 6.6 ± 0.6 µM
- IC50 (GIRK1/2 channels; [11]): 28.3 ± 2.5 µM
- effect of extracellular pH on percentage inhibition of GIRK channels (GIRK1/2 channels; extracellular pH 7.4 and 9.0): not significantly affected
- inhibition at 100 µM (GIRK1/2 channels): 65.6 ± 1%
- inhibition at 300 µM (GIRK1/2 channels; [12]): 72.2 ± 1.1%
- n H (Hill coefficient) (GIRK1/4 channels; basal GIRK currents): 0.97±0.07
- EC50 (GIRK1/4 channels; [9]): 17 ± 1.3 µM
- IC25 (GIRK1/4 channels; [10]): 12.6 ± 1.2 µM
- IC50 (GIRK1/4 channels; [11]): 124 ± 34.3 µM
- inhibition at 100 µM (GIRK1/4 channels): 49.7 ± 2.2%
- inhibition at 300 µM (GIRK1/4 channels; [12]): 54.1 ± 1.5%

SMILES: Nc1nc2c(ncn2[C@@H]2O[C@H](COP(=O)([O-])OP(=O)([O-])OP([O-])([O-])=S)[C@@H](O)[C@H]2O)c(=O)[nH]1.[Li+].[Li+].[Li+].[Li+] [GTPγS, Li4-guanosine-5′-O-(3-thiotriphosphate)]
- increase of inward currents, steady-state level [7]: 516.0±123.7 nA

SMILES: CCc1nn(CCCN2CCN(c3cccc(Cl)c3)CC2)c(=O)n1CCOc1ccccc1 [nefazodone, nefazodone hydrochloride]
- concentrations in cases of overdose [5]: ≤ 11.7 µM
- inhibition at 100 µM (GIRK1/2 channels; 100 µM, −70 mV, hK solution): 35.9 ± 3.5%
- inhibition at 100 µM (GIRK1/4 channels; 100 µM, −70 mV, hK solution): 30.3 ± 3.4%

More lines, main results first:

- protonated form [2]: approximately 96.9%
SMILES: CN[C@H]1CC[C@@H](c2ccc(Cl)c(Cl)c2)c2ccccc21 [sertraline, Sertraline hydrochloride]
- current response [1, 8]: 3.0±0.9 nA
- current response ([1]; 300 µM, hK solution, −70 mV): 2.0±2.0 nA
- % change of the Ba2+-sensitive current components (Kir2.1 channels): less than 2%
- pKa of secondary amine group [3]: 8.9

- inhibition at 100 µM (GIRK1/2 channels; 100 µM, −70 mV, hK solution): 24.1 ± 5.5%
- inhibition at 100 µM (GIRK1/4 channels; 100 µM, −70 mV, hK solution): 18.8 ± 1.3%
SMILES: CN1CCN2c3ccccc3Cc3ccccc3C2C1 (stereo not drawn) [mianserin, mianserin hydrochloride]
- concentrations in cases of overdose [5]: ≤ 18.9 µM
- brain levels compared with blood levels [6]: 12.1 fold

- inhibition at 100 µM (GIRK1/2 channels; 100 µM, −70 mV, hK solution): 17.6 ± 3.5%
- inhibition at 100 µM (GIRK1/4 channels; 100 µM, −70 mV, hK solution): 12.1 ± 2.4%
SMILES: CN1CCN2c3ncccc3Cc3ccccc3C2C1 (stereo not drawn) [mirtazapine, Mirtazapine]
- brain levels compared with blood levels [6]: 3.2 fold
